{"source": "patent US8987486B2", "about": "“Trans-2-decenoic acid derivative and pharmaceutical agent containing the same” (Nagoya Industrial Science Research Institute, priority 2010, dated 2015)", "key": {"PC12 cells": {"tested_on": "PC12 cells", "test": "Evaluation using PC12 cells; immunostaining method for MAPK phosphorylation", "format": "cell-based", "conditions": "30 minutes", "outline": "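PC12 cells in DMEM with 1% FBS, exposed to compound for 30 min after 12–16 h in that medium; fixed and immunostained for phospho-p42/44 MAPK, nuclei counterstained with Hoechst. Value is percentage of pMAPK-positive cells (above a luminance threshold) among Hoechst-positive cells, from four images per coverslip.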"}, "[1]": {"tested_on": "male mice injected with corticosterone", "test": "Tail suspension test in mice administered corticosterone", "format": "in vivo", "conditions": "after two weeks, control 141.15 seconds", "description": "Corticosterone suspended in oil was hypodermically injected to male mice of seven weeks age (n=3 to 5) in a dose of […] every day for three weeks. At the same time, the compound of the present invention dissolved in PBS or in a PBS solvent containing DMSO, etc. was orally administered every day for three weeks. After one, two and three week(s), the suppressive effect for depressive symptom was evaluated by a tail suspension test in the same manner as in the above Test Example 7. Incidentally, the test for significance was conducted by a Student's t-test."}, "[2]": {"tested_on": "paclitaxel-induced peripheral nerve disorder rats", "test": "von Frey test in paclitaxel-induced peripheral nerve disorder rats", "format": "in vivo", "conditions": "Rattus norvegicus, ip; single intraperitoneal dose of 300 μ/kg; higher of the thresholds after 1 hour and 5 hours; normal threshold 15; read-out: Recovery rate of 50% reaction threshold value (%)", "outline": "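Male SD rats (six weeks, n=6/group) got paclitaxel 2 mg/kg i.p. every other day ×4. On days 18–25 or 20–27, test drug was given i.p. as a single […] dose. Von Frey up-down 50% thresholds (right hind paw) were taken pre-dose and at 1, 5, 24 h. Recovery rate used the higher 1/5 h value and a normal threshold of 15.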"}}, "data": [{"smiles": "CCCCCCC/C=C/C(=O)SCCN(C)C", "note": "[Compound 55, (E)-S-2-(dimethylamino)ethyl dec-2-enethioate]", "values": [{"measurement": "Rate of pMAPK-positive cells (%)", "setting": "PC12 cells; 62.5 μg/mL", "value": 20, "unit": "%"}, {"measurement": "Rate of pMAPK-positive cells (%)", "setting": "PC12 cells; 125 μg/mL", "value": 46, "unit": "%"}, {"measurement": "Rate of pMAPK-positive cells (%)", "setting": "PC12 cells; 250 μg/mL", "value": 41, "unit": "%"}, {"measurement": "Rate of pMAPK-positive cells (%)", "setting": "PC12 cells; 500 μg/mL", "value": 10, "unit": "%"}, {"measurement": "immobility time (tail suspension test)", "setting": "[1]; 1,500 μg/kg orally every day", "value": 86.71, "unit": "s"}, {"measurement": "inhibition in vivo at 0.3 mg/kg", "setting": "[2]", "value": 45.4, "unit": "%"}]}, {"smiles": "CCCCCCC/C=C/C(=O)NCCN(CC)CC", "note": "[Compound 37, (E)-N-2-(diethylamino)ethyl dec-2-enamide]", "values": [{"measurement": "Rate of pMAPK-positive cells (%)", "setting": "PC12 cells; 62.5 μg/mL", "value": 6, "unit": "%"}, {"measurement": "Rate of pMAPK-positive cells (%)", "setting": "PC12 cells; 125 μg/mL", "value": 43, "unit": "%"}, {"measurement": "Rate of pMAPK-positive cells (%)", "setting": "PC12 cells; 250 μg/mL", "value": 48, "unit": "%"}, {"measurement": "Rate of pMAPK-positive cells (%)", "setting": "PC12 cells; 500 μg/mL", "value": 0, "unit": "%"}, {"measurement": "inhibition in vivo at 0.3 mg/kg", "setting": "[2]", "value": 73.1, "unit": "%"}]}, {"smiles": "CCCCCCC/C=C/C(=O)OCCN(CC)CC", "note": "[Compound 6, (E)-2-(diethylamino)ethyl dec-2-enoate]", "values": [{"measurement": "Rate of pMAPK-positive cells (%)", "setting": "PC12 cells; 62.5 μg/mL", "value": 31, "unit": "%"}, {"measurement": "Rate of pMAPK-positive cells (%)", "setting": "PC12 cells; 125 μg/mL", "value": 51, "unit": "%"}, {"measurement": "immobility time (tail suspension test)", "setting": "[1]; 300 μg/kg orally every day", "value": 60.37, "unit": "s"}]}, {"smiles": "CCCCCCC/C=C/C(=O)NCCN(C)C", "note": "[Compound 36, (E)-N-2-(dimethylamino)ethyl dec-2-enamide]", "values": [{"measurement": "Rate of pMAPK-positive cells (%)", "setting": "PC12 cells; 62.5 μg/mL", "value": 12, "unit": "%"}, {"measurement": "Rate of pMAPK-positive cells (%)", "setting": "PC12 cells; 125 μg/mL", "value": 70, "unit": "%"}, {"measurement": "Rate of pMAPK-positive cells (%)", "setting": "PC12 cells; 250 μg/mL", "value": 89, "unit": "%"}, {"measurement": "Rate of pMAPK-positive cells (%)", "setting": "PC12 cells; 500 μg/mL", "value": 43, "unit": "%"}, {"measurement": "immobility time (tail suspension test)", "setting": "[1]; 300 μg/kg orally every day", "value": 41.63, "unit": "s"}, {"measurement": "inhibition in vivo at 0.3 mg/kg", "setting": "[2]", "value": 72.1, "unit": "%"}]}, {"smiles": "CCCCCCC/C=C/C(=O)OCCN(C)C", "note": "[Compound 1, (E)-2-(dimethylamino)ethyl dec-2-enoate]", "values": [{"measurement": "Rate of pMAPK-positive cells (%)", "setting": "PC12 cells; 62.5 μg/mL", "value": 4, "unit": "%"}, {"measurement": "Rate of pMAPK-positive cells (%)", "setting": "PC12 cells; 125 μg/mL", "value": 12, "unit": "%"}, {"measurement": "Rate of pMAPK-positive cells (%)", "setting": "PC12 cells; 250 μg/mL", "value": 36, "unit": "%"}, {"measurement": "Rate of pMAPK-positive cells (%)", "setting": "PC12 cells; 500 μg/mL", "value": 32, "unit": "%"}, {"measurement": "inhibition in vivo at 0.3 mg/kg", "setting": "[2]", "value": 48.3, "unit": "%"}]}]}
